The values below come from ChEMBL document CHEMBL3739275, “Tryptophan dendrimers that inhibit HIV replication, prevent virus entry and bind to the HIV envelope glycoproteins gp120 and gp41” (Eur J Med Chem, 2015).

Calls of active or inactive are those of the source. The rule behind the calls is not given here.

Data set [1] can be described thus: Cytotoxicity against human CEM cells assessed as cell count after 3 days. It counts as cell-based. The following applies: CEM cells (CCRF-CEM).
For data set [2], the system named is Human immunodeficiency virus 2. The experiment in a line: Antiviral activity against HIV2 ROD infected in human CEM cells assessed as inhibition of virus-induced giant cell formation after 4 to 5 days by microscopic analysis. The note with it: Human immunodeficiency virus 2, ISOLATE ROD, CCRF-CEM. It counts as functional, organism-based.
Data set [3] has as its system Human immunodeficiency virus 1. The experiment in a line: Antiviral activity against HIV1 3B infected in human CEM cells assessed as inhibition of virus-induced giant cell formation after 4 to 5 days by microscopic analysis. It counts as functional, organism-based. The note with it: CCRF-CEM; for EC50: Human immunodeficiency virus 1, 3B.
In data set [4] the test system is Human immunodeficiency virus 1. The experiment in a line: Binding affinity to recombinant HIV1 HxB2 gp-41 at 50 uM by surface plasmon resonance assay.
A short description of data set [5]: Binding affinity to recombinant HIV1 3B gp-120 expressed in CHO cells at 50 uM by surface plasmon resonance assay. The following applies: Human immunodeficiency virus 1.
A short description of data set [6]: Binding affinity to recombinant HIV1 3B gp-120 expressed in CHO cells by surface plasmon resonance assay. The following applies: read-out: Kd(app). Further details: species or system Human immunodeficiency virus 1.
Data set [7] deals with Human immunodeficiency virus 1. Put plainly: Antiviral activity against HIV1 NL4.3 infected in human MT4 cells assessed as inhibition of virus-induced cytopathic effect after 5 days by MTS/phenazine ethosulfate method. It counts as functional, organism-based. The following applies: Human immunodeficiency virus 1, NL4.3, MT4, 120 h.
Data set [8] in a line: Selectivity index, ratio of CC50 for human CEM cells to EC50 for HIV1 3B. It counts as toxicity, cell-based, CCRF-CEM. The note with it: read-out: Ratio CC50/EC50.
Data set [9] relates to Human immunodeficiency virus 1. The experiment in a line: Antiviral activity against HIV1 3B infected in human MT4 cells assessed as inhibition of early viral infection to host cells by measuring p24 production at 10 uM treated 1 to 25 hrs of post infection by ELISA. It counts as functional, organism-based.

As for `O=C(O)CCC(CCC(=O)O)(CCC(=O)O)NC(=O)C[C@H]1C[C@@H](CC(=O)NC(CCC(=O)O)(CCC(=O)O)CCC(=O)O)C[C@@H](CC(=O)NC(CCC(=O)O)(CCC(=O)O)CCC(=O)O)C1`, in data set [1], the CC50 at 72 h is more than 250 µM. Also, the EC50 in data set [2] and in data set [3] was more than 250 µM throughout.
As for `C[C@H](Cn1cnc2c(N)ncnc21)OCP(=O)(O)O` [TENOFOVIR ANHYDROUS], the CC50 at 72 h in data set [1] was more than 100 µM.
Take `CCc1c(CC(=O)NC(CCC(=O)N[C@@H](Cc2c[nH]c3ccccc23)C(=O)O)(CCC(=O)N[C@@H](Cc2c[nH]c3ccccc23)C(=O)O)CCC(=O)N[C@H](Cc2c[nH]c3ccccc23)C(=O)O)c(CC)c(CC(=O)NC(CCC(=O)N[C@@H](Cc2c[nH]c3ccccc23)C(=O)O)(CCC(=O)N[C@H](Cc2c[nH]c3ccccc23)C(=O)O)CCC(=O)N[C@H](Cc2c[nH]c3ccccc23)C(=O)O)c(CC)c1CC(=O)NC(CCC(=O)N[C@@H](Cc1c[nH]c2ccccc12)C(=O)O)(CCC(=O)N[C@H](Cc1c[nH]c2ccccc12)C(=O)O)CCC(=O)N[C@H](Cc1c[nH]c2ccccc12)C(=O)O`: the CC50 at 72 h in [1] was more than 100 µM. In [3], the Activity result is “Dose-dependent effect” and the EC50 stood at 6.2 µM. In [4], the outcome was Active. Besides, the outcome in data set [5] was Active.
In the case of `CCc1c(CC(=O)NC(CCC(=O)O)(CCC(=O)O)CCC(=O)O)c(CC)c(CC(=O)NC(CCC(=O)O)(CCC(=O)O)CCC(=O)O)c(CC)c1CC(=O)NC(CCC(=O)O)(CCC(=O)O)CCC(=O)O`, the CC50 at 72 h in [1] was more than 250 µM. The EC50 in [2] and in data set [3] was more than 250 µM in each case.
For `CCc1c(CNc2nc(N[C@@H](Cc3c[nH]c4ccccc34)C(=O)O)nc(N[C@@H](Cc3c[nH]c4ccccc34)C(=O)O)n2)c(CC)c(CNc2nc(N[C@@H](Cc3c[nH]c4ccccc34)C(=O)O)nc(N[C@@H](Cc3c[nH]c4ccccc34)C(=O)O)n2)c(CC)c1CNc1nc(N[C@@H](Cc2c[nH]c3ccccc23)C(=O)O)nc(N[C@@H](Cc2c[nH]c3ccccc23)C(=O)O)n1`, the CC50 at 72 h in data set [1] is more than 250 µM. The Kd in data set [6] was found to be 14 µM.
With `CN[C@@H]1[C@H](O[C@@H]2OC[C@@H](O)[C@H](O)[C@H]2O)[C@@H](O)[C@H](O[C@H]2c3cc(C)c(C(=O)N[C@H](C)C(=O)O)c(O)c3-c3c(cc4c(c3O)C(=O)c3cc(OC)cc(O)c3C4=O)[C@@H]2O)O[C@@H]1C` [PRADIMICIN A], the CC50 at 72 h in data set [1] is more than 100 µM.
Regarding `O=C(CCC(CCC(=O)N[C@@H](Cc1c[nH]c2ccccc12)C(=O)O)(CCC(=O)N[C@@H](Cc1c[nH]c2ccccc12)C(=O)O)NC(=O)CN(CCN(CC(=O)NC(CCC(=O)N[C@@H](Cc1c[nH]c2ccccc12)C(=O)O)(CCC(=O)N[C@@H](Cc1c[nH]c2ccccc12)C(=O)O)CCC(=O)N[C@H](Cc1c[nH]c2ccccc12)C(=O)O)CC(=O)NC(CCC(=O)N[C@@H](Cc1c[nH]c2ccccc12)C(=O)O)(CCC(=O)N[C@H](Cc1c[nH]c2ccccc12)C(=O)O)CCC(=O)N[C@H](Cc1c[nH]c2ccccc12)C(=O)O)CC(=O)NC(CCC(=O)N[C@@H](Cc1c[nH]c2ccccc12)C(=O)O)(CCC(=O)N[C@H](Cc1c[nH]c2ccccc12)C(=O)O)CCC(=O)N[C@H](Cc1c[nH]c2ccccc12)C(=O)O)N[C@@H](Cc1c[nH]c2ccccc12)C(=O)O`, in data set [1], the CC50 at 72 h is more than 30 µM. Besides, the EC50 in data set [2] was not below 30 µM; in [3] it was 11.3 µM. In data set [3], the Activity entry is “Dose-dependent effect”. For the same compound, the outcome in [4] and in data set [5] was Active.
Regarding `O=C(CCC(CCC(=O)N[C@@H](Cc1c[nH]c2ccccc12)C(=O)O)(CCC(=O)N[C@H](Cc1c[nH]c2ccccc12)C(=O)O)NC(=O)c1cc(C(=O)NC(CCC(=O)N[C@@H](Cc2c[nH]c3ccccc23)C(=O)O)(CCC(=O)N[C@H](Cc2c[nH]c3ccccc23)C(=O)O)CCC(=O)N[C@H](Cc2c[nH]c3ccccc23)C(=O)O)cc(C(=O)NC(CCC(=O)N[C@@H](Cc2c[nH]c3ccccc23)C(=O)O)(CCC(=O)N[C@H](Cc2c[nH]c3ccccc23)C(=O)O)CCC(=O)N[C@H](Cc2c[nH]c3ccccc23)C(=O)O)c1)N[C@@H](Cc1c[nH]c2ccccc12)C(=O)O`, the values for the EC50 in data set [7] and in [3] were 1.3 µM and 2.6 µM, respectively. Also, the CC50 at 72 h in data set [1] was 53 µM. For the same compound, in data set [3], the Activity entry was “Dose-dependent effect”. The result in [4] and in data set [5] was Active.
Take `O=C(CCC(CCC(=O)N[C@@H](Cc1c[nH]c2ccccc12)C(=O)O)(CCC(=O)N[C@H](Cc1c[nH]c2ccccc12)C(=O)O)NC(=O)[C@H]1C[C@@H](C(=O)NC(CCC(=O)N[C@@H](Cc2c[nH]c3ccccc23)C(=O)O)(CCC(=O)N[C@H](Cc2c[nH]c3ccccc23)C(=O)O)CCC(=O)N[C@H](Cc2c[nH]c3ccccc23)C(=O)O)C[C@@H](C(=O)NC(CCC(=O)N[C@@H](Cc2c[nH]c3ccccc23)C(=O)O)(CCC(=O)N[C@H](Cc2c[nH]c3ccccc23)C(=O)O)CCC(=O)N[C@H](Cc2c[nH]c3ccccc23)C(=O)O)C1)N[C@@H](Cc1c[nH]c2ccccc12)C(=O)O`: the EC50 is 2 µM in [7] and 4.5 µM in [3]. The selectivity ratio in data set [8] was more than 55. Besides, in [1], the CC50 at 72 h was more than 250 µM. In addition, the Activity entry in [3] is “Dose-dependent effect”. The result in data set [4] and in data set [5] was Active.
For the compound `O=C(O)CCC(CCC(=O)O)(CCC(=O)O)NC(=O)CN(CCN(CC(=O)NC(CCC(=O)O)(CCC(=O)O)CCC(=O)O)CC(=O)NC(CCC(=O)O)(CCC(=O)O)CCC(=O)O)CC(=O)NC(CCC(=O)O)(CCC(=O)O)CCC(=O)O`, the CC50 at 72 h in [1] is more than 250 µM. In addition, the EC50 in data set [2] and in data set [3] was more than 250 µM throughout.
For the compound `O=C(CCC(CCC(=O)N[C@@H](Cc1c[nH]c2ccccc12)C(=O)O)(CCC(=O)N[C@H](Cc1c[nH]c2ccccc12)C(=O)O)NC(=O)CCC(CCC(=O)NC(CCC(=O)N[C@@H](Cc1c[nH]c2ccccc12)C(=O)O)(CCC(=O)N[C@@H](Cc1c[nH]c2ccccc12)C(=O)O)CCC(=O)N[C@H](Cc1c[nH]c2ccccc12)C(=O)O)(CCC(=O)NC(CCC(=O)N[C@@H](Cc1c[nH]c2ccccc12)C(=O)O)(CCC(=O)N[C@H](Cc1c[nH]c2ccccc12)C(=O)O)CCC(=O)N[C@H](Cc1c[nH]c2ccccc12)C(=O)O)[N+](=O)[O-])N[C@@H](Cc1c[nH]c2ccccc12)C(=O)O`, in [1], the CC50 at 72 h is more than 100 µM. Also, the figures for the EC50 in [2] and in [3] were 44 µM and 9.9 µM, respectively. Also, the Activity entry in [3] is “Dose-dependent effect”. Besides, the result in data set [4] and in data set [5] was Active.
In the case of `O=C(CCC(CCC(=O)N[C@@H](Cc1c[nH]c2ccccc12)C(=O)O)(CCC(=O)N[C@H](Cc1c[nH]c2ccccc12)C(=O)O)NC(=O)CN(CC(=O)NC(CCC(=O)N[C@@H](Cc1c[nH]c2ccccc12)C(=O)O)(CCC(=O)N[C@H](Cc1c[nH]c2ccccc12)C(=O)O)CCC(=O)N[C@H](Cc1c[nH]c2ccccc12)C(=O)O)CC(=O)NC(CCC(=O)N[C@H](Cc1c[nH]c2ccccc12)C(=O)O)(CCC(=O)N[C@H](Cc1c[nH]c2ccccc12)C(=O)O)CCC(=O)N[C@H](Cc1c[nH]c2ccccc12)C(=O)O)N[C@@H](Cc1c[nH]c2ccccc12)C(=O)O`, the EC50 turned out to be 2.5 µM in [7] and 3.2 µM in data set [3]. Besides, the outcome in data set [9], in data set [4] and in data set [5] was Active. Also, in data set [1], the CC50 at 72 h came out at 59 µM. Besides, in data set [3], the Activity result was “Dose-dependent effect”.
